The test system of data set [1] is anti-CD22 CAR T-cells co-cultured with Raji target cells. The experiment in a line: Cytokine profiling of anti-CD22 CAR T-cells co-cultured with Raji target cells in presence of Asunaprevir. The class given is cell-based, human. Particulars: various concentrations of ASN, 24 hours co-culture with Raji; FIG. 10. The protocol: FIG. 10: Cytokine quantification after co-culture of anti-CD22 CAR T-cells with target cells as a function of Asunaprevir concentration (see example 6). Data are shown as the mean±SD of duplicates per points.
T-cells were co-cultured with Raji target cells in 12-well culture plates in the presence of various concentrations of ASN for 24 hours. Cells were spun down, and the supernatants were aliquoted and frozen. Cytokine levels in the supernatants were measured with LEGEND plex Human Th Cytokine panel (Biolegend).

Data set [2] relates to CD22 positive target cells (Raji) killed by degron CAR T-cells. The experiment in a line: Cytolytic properties of C-terminal fusion degron CAR T-cells against luciferase-expressing Raji cells with Asunaprevir. The note with it: 500 nM Asunaprevir; T-cells:Raji 3:1; 3 consecutive days; FIG. 7.
Description: Data are normalized using untransduced human primary T-cells.
After 24 h the cells were pelleted, the supernatant was collected for luciferase quantification and the pelleted cells were resuspended in fresh complete X-vivo (supplemented or not with 500 nM Asunaprevir) media and 0.5×10^6 target cells (CD22 positive cells) were added.
Data set [3] relates to CD22 positive Raji cells killed by anti-CD22 degron CAR T-cells. The experiment in a line: Cytolytic properties of anti-CD22 degron CAR T-cells after wash-out of Asunaprevir. The note with it: 500 nM Asunaprevir, wash-out 48 h, 24 h or 0 h prior to cytotoxicity assay; Raji 3:1; FIGS. 8A and 8B.
Description: A fraction of the cells is maintained under 500 nM of Asunaprevir (correspond to the no wash-out point).
After 24 h the cells are pelleted, the supernatant is collected for luciferase quantification.
For the next data set, the system named is T-cells. The experiment in a line: T-cell proliferation in presence of Asunaprevir. It counts as cell-based, human. Particulars: 100 nM to 1 μM ASN; FIG. 9. How it is done: FIG. 9: Proliferation of T-cells in the presence of increasing concentrations of Asunaprevir (see example 5). The total number of cells at different days cultured in presence of 100 nM, 500 nM or 1000 nM relative to 0 nM ASN is presented. Data are shown as the median of PBMC from 2 donors done in duplicate.
T-cells were cultured in X-Vivo 15 (Lonza) supplemented with 5% human serum hAB (Gemini) and 20 ng/ml IL-2 (Miltenyi) at a density of 1×10^6 cells/ml in presence of various dose (0-1000 nM) of the Asunaprevir protease inhibitor.

In data set [4] the test system is Raji target cells killed by SWOFF anti-CD22 CAR T-cells (TRAC locus integration). In words: Cytotoxicity of T-cells with SWOFF anti-CD22 CAR integrated at the TRAC locus against luciferase-expressing Raji cells, Asunaprevir dose response. The class given is cell-based, human.
Excerpt: Data are shown as median with 95% confidence intervals of triplicates per points. N=2, performed in triplicates.
T-cells were then passaged the day prior to the transfection/transduction at 1×10^6 cells/ml in complete media. On the day of transfection/transduction, the cells were de-beaded by magnetic separation (EasySep), washed twice in Cytoporation buffer T (BTX Harvard Apparatus, Holliston, Mass.), and resuspended at a final concentration of 28×10^6 cells/ml in the same solution.
The electroporated cells were then immediately transferred to a 12-well plate containing 1 ml of prewarmed X-vivo-15 serum-free media and incubated for 37° C. for 15 min. The cells were then plated at a concentration of 10,000 cells/well with AAV in a 20 μl total volume of serum-free media (MOI: 1×10^5 vg/cells) in 96-well round bottom plates. […] 100 pL of fresh complete media was then added. Six days after transduction, 0.5×10^6 cells were seeded in a G-Rex 24-well plate (Wilson Wolf) in 5 ml of complete X-vivo-15 media and cultivated for 11 days.
After 24 h, the cells are collected and mixed, and 100 ul of cells was used for luciferase quantification (OneGlo, Promega). The remainder of the cells were pelleted and resuspended in fresh X-vivo 15 media with 5% hAB serum, no 11-2 (supplemented with or without 1-500 nM Asunaprevir), and an additional 0.5×10^6 target cells were added.
Data set [5] relates to degron CARs (anti-CD123, anti-CD22) with NS3 protease domain in primary human T-cells. In words: Surface expression of C-terminal fusion degron CARs in primary human T-cells (flow cytometry, labeled recombinant CD22 or CD123). The class given is cell-based. The note with it: 500 nM Asunaprevir for 48 h, FIG. 6. The source says:
FIG. 6: Experimental results obtained with T-cells endowed with the CARs of the present invention. 6A: Percentage of CAR positive T-cells (presentation of anti-CD123 CARs at the surface of the transduced cells) in presence or absence of the protease inhibitor Asunaprevir. 6B: Percentage of CAR positive T-cells (presentation of anti-CD22 CARs at the surface of the transduced cells) in presence or absence of the protease inhibitor Asunaprevir). Controls are T-cells endowed with CARs lacking controlled degradation moiety (high presentation of CARs at the surface of the transduced cells). The percentage of CAR positive cells is measured by flow cytometry. Experimental details are provided in example 2.
3-5 days post transduction T-cells were incubated with or without 500 nM Asunaprevir for 48 h. The proportion of T-cells expressing the CAR at their surface was then quantified using labeled recombinant protein CD22 or CD123 targeted by the CAR (LakePharma).
For orientation: Flow cytometry measures light scatter and fluorescence of single cells or particles in a stream.

One may read the IC50 as the concentration that gives 50% inhibition.

Each structure is given as a SMILES string. Entries after “also recorded” stand apart in the source; their conditions may differ.

For the compound `C=C[C@@H]1C[C@]1(NC(=O)[C@@H]1C[C@@H](Oc2ncc(OC)c3ccc(Cl)cc23)CN1C(=O)[C@@H](NC(=O)OC(C)(C)C)C(C)(C)C)C(=O)NS(=O)(=O)C1CC1` [Asunaprevir, asunaprevir], the cytokine production result in data set [1] is “did not result in notable variations”. Besides, in data set [2], the “CAR cytolytic properties (percentage of CD22 positive target cells killed)” value was “could be negatively controlled; also recorded: reduced”. Also, the “CAR cytolytic properties after wash-out of Asunaprevir” value in data set [3] is “controlled by Asunaprevir in a reversible manner”. In the data set on T-cells, the “proliferation of the T-cells” value is on record as “no effects” and the “viability of the T-cells” value is on record as “no effects”. For the same compound, the “CAR T-cells cytolytic properties (luciferase signal of target cells)” value in data set [4] (1 to 500 nM Asunaprevir, T-cells:Raji 3:1, FIG. 14) was “controlled by addition of Asunaprevir”. In addition, in data set [4] (Homo sapiens, Raji, read-out: IC50 of control of CAR T-cells cytolytic properties), the IC50 is around 15 nM. Further, the “CAR presentation at the surface, control CARs lacking the self-excising degron” value in data set [5] (control CARs) is reported as “did not react”. In addition, the “CAR presentation at the surface of the transduced T-cells population” value in data set [5] (degron CARs anti-CD123 / anti-CD22) was “could be controlled by Asunaprevir”.

The values are drawn from patent US20200140560A1, “PROTEASE BASED SWITCH CHIMERIC ANTIGEN RECEPTORS FOR SAFER CELL IMMUNOTHERAPY” (CELLECTIS, priority 2017, published 2020).
